Results: patent publication US20230159527A1, “COMPOUNDS AS BCL-2 INHIBITORS” (Fochon Pharmaceuticals, Ltd., priority 2020, published 2023)

What was measured:
Type in all cases: cell-based
RS4;11 cells = assay: Cell proliferation assay, RS4;11 cells (MTS, 72 h); conditions: Homo sapiens, RS4;11 cell proliferation
Protocol: MTS testing kit was purchased from Promega. The RPMI-1640, Fetal bovine serum and Penicillin-Streptomycin were purchased from Gibco. Dimethyl sulfoxide (DMSO) was purchased from Sigma.
To investigate whether a compound is able to inhibit the activity of Bcl-2 in cells, a mechanism-based assay using RS4;11 (ATCC® CRL-1873™) cell was developed. In this assay, inhibition of Bcl-2 was detected by the inhibition of RS4;11 cells proliferation. RS4;11 cells were cultured in culture flasks to 40-80% confluence in RPMI-1640 plus 10% fetal bovine serum. Cells were collected and plated onto 96-well plates at desired cell density (30000 cells/well). Plates were incubated overnight at 37° C., with 5% CO2 to adhere. Compounds were added to the plates, and the final compound concentrations were 10000, 3333, 1111, […], 41, 14, 4.6 and 1.5 nM. Plates plated with RS4;11 cells were placed at 37° C., with 5% CO2 for 72 h. 20 μl MTS/100 μl medium mixture solution were added to each well and incubate the plates for exactly 2 hours. The reaction was stopped by adding 25 μl 10% SDS per well. Measure absorbance at 490 nm and 650 nm (reference wavelength). IC50 was calculated using GraphPad Prism 5.0.

DoHH2 cells = assay: Cell proliferation assay, DoHH2 cells (MTS, 120 h); conditions: Homo sapiens, DOHH-2
Outline: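 DoHH2 cells in RPMI-1640 with 10% FBS were plated at 5000/well and rested 4 h. They were then exposed to compound at nine final concentrations (10000 to 1.5 nM) for 120 h at 37 °C. Viability was read by MTS (2 h, A490) and IC50 derived by curve fitting.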

Toledo cells = assay: Cell proliferation assay, Toledo cells (MTS, 72 h); conditions: Homo sapiens, Toledo cells, MTS, read-out: Toledo IC50
Outline: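 Toledo cells (30000/well, RPMI-1640 with 10% FBS) were preincubated for 4 h. They were then exposed to nine compound concentrations from 10000 to 1.5 nM for 72 h at 37 °C, 5% CO2. MTS was added for 2 h and absorbance read at 490 nm to give IC50.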

IC50 (RS4;11 cells) [nM] | SMILES | IC50 (DoHH2 cells) [nM] | IC50 (Toledo cells) [nM]
≤ 1 | CC(C)c1ccccc1[C@H]1CCCN1C1CC2(CCN(c3ccc(C(=O)NS(=O)(=O)c4cnc(NCC5CCOCC5)c([N+](=O)[O-])c4)c(Oc4cnc5[nH]ccc5c4)c3)CC2)C1 [Example A-5b, (R)-2-((1H-pyrrolo[2,3-b]pyridin-5-yl)oxy)-4-(2-(2-(2-isopropylphenyl)pyrrolidin-1-yl)-7-azaspiro[3.5]nonan-7-yl)-N-((5-nitro-6-(((tetrahydro-2H-pyran-4-yl)methyl)amino)pyridin-3-yl)sulfonyl) benzamide] | ≤ 1 | 1
≤ 1 | O=C(NS(=O)(=O)c1cc2c(c([N+](=O)[O-])c1)O[C@H](CN1CCOCC1)CO2)c1ccc(N2CCC3(CC2)CC(N2CCC[C@H]2c2ccccc2C2CC2)C3)cc1Oc1cnc2[nH]ccc2c1 (single isomer, unassigned) [Example E-38, 2-((1H-pyrrolo [2,3-b]pyridin-5-yl)oxy)-4-(2-((R or S)-2-(2-cyclopropylphenyl)pyrrolidin-1-yl)-7-azaspiro[3.5]nonan-7-yl)-N-(((R)-2-(morpholinomethyl)-8-nitro-2,3-dihydrobenzo [b][1,4]dioxin-6-yl)sulfonyl) benzamide] | ≤ 1 | 1
≤ 1 | CC(C)c1ccccc1[C@@H]1COCCN1C1CC2(CCN(c3ccc(C(=O)NS(=O)(=O)c4cc5c(c([N+](=O)[O-])c4)O[C@H](CN4CCOCC4)CO5)c(Oc4cnc5[nH]ccc5c4)c3)CC2)C1 (single isomer, unassigned) [Example E-40, 2-((1H-pyrrolo [2,3-b]pyridin-5-yl)oxy)-4-(2-((R or S)-3-(2-isopropylphenyl)morpholino)-7-azaspiro[3.5]nonan-7-yl)-N-(((R)-2-(morpholinomethyl)-8-nitro-2,3-dihydrobenzo [b][1,4]dioxin-6-yl)sulfonyl) benzamide] | ≤ 1 | 1
≤ 1 | CC(C)c1ccccc1[C@H]1CCCN1C1CC2(CCN(c3ccc(C(=O)NS(=O)(=O)c4cnc(NC[C@H]5CC[C@@](C)(O)CC5)c([N+](=O)[O-])c4)c(Oc4cnc5[nH]ccc5c4)c3)CC2)C1 [Example A-7a, 2-((1H-pyrrolo[2,3-b]pyridin-5-yl)oxy)-N-((6-((((1s,4s)-4-hydroxy-4-methylcyclohexyl)methyl)amino)-5-nitropyridin-3-yl)sulfonyl)-4-(2-((R)-2-(2-isopropylphenyl)pyrrolidin-1-yl)-7-azaspiro[3.5]nonan-7-yl)benzamide] | ≤ 1 | 1
≤ 1 | CC(C)c1ccccc1[C@@H]1COCCN1C1CC2(CCN(c3ccc(C(=O)NS(=O)(=O)c4cc([N+](=O)[O-])c5c(n4)OC[C@H]([C@H]4CC[C@](C)(O)CC4)N5)c(Oc4cnc5[nH]ccc5c4)c3)CC2)C1 (single isomer, unassigned) [Example B-47, 2-((1H-pyrrolo[2,3-b]pyridin-5-yl)oxy)-N-(((S)-2-((1r,4S)-4-hydroxy-4-methylcyclohexyl)-8-nitro-2,3-dihydro-1H-pyrido[2,3-b][1,4]oxazin-6-yl)sulfonyl)-4-(2-((R or S)-3-(2-isopropylphenyl)morpholino)-7-azaspiro[3.5]nonan-7-yl) benzamide] | ≤ 1 | 
≤ 1 | CC(C)c1ccccc1C1CCCN1C1CC2(CCN(c3ccc(C(=O)NS(=O)(=O)c4cc([N+](=O)[O-])c5c(n4)OC[C@H](C4CC4)N5)c(Oc4cnc5[nH]ccc5c4)c3)CC2)C1 (single isomer, unassigned) [Example B-31a, 2-((1H-pyrrolo[2,3-b]pyridin-5-yl)oxy)-N-(((S)-2-cyclopropyl-8-nitro-2,3-dihydro-1H-pyrido[2,3-b] [1,4]oxazin-6-yl)sulfonyl)-4-(2-((R or S)-2-(2-isopropylphenyl)pyrrolidin-1-yl)-7-azaspiro[3.5]nonan-7-yl)benzamide] | ≤ 1 | 
≤ 1 | CCS(=O)(CC)=NC1CCC(CNc2ncc(S(=O)(=O)NC(=O)c3ccc(N4CCC5(CC4)CC(N4CCC[C@@H]4c4ccccc4C4CC4)C5)cc3Oc3cnc4[nH]ccc4c3)cc2[N+](=O)[O-])CC1 (stereo partly drawn) [Example A-2b, (R)-2-((1H-pyrrolo[2,3-b]pyridin-5-yl)oxy)-4-(2-(2-(2-cyclopropylphenyl)pyrrolidin-1-yl)-7-azaspiro[3.5]nonan-7-yl)-N-((6-(((4-((diethyl(oxo)-λ^6-sulfanylidene)amino)cyclohexyl)methyl)amino)-5-nitropyridin-3-yl)sulfonyl)benzamide] | ≤ 1 | 
≤ 1 | CC(C)c1ccccc1[C@H]1CCCN1C1CC2(CCN(c3ccc(C(=O)NS(=O)(=O)c4cc([N+](=O)[O-])c(NCC5CCOCC5)cn4)c(Oc4cnc5[nH]ccc5c4)c3)CC2)C1 [Example B-4b, (R)-2-((1H-pyrrolo[2,3-b]pyridin-5-yl)oxy)-4-(2-(2-(2-isopropylphenyl)pyrrolidin-1-yl)-7-azaspiro [3.5]nonan-7-yl)-N-((4-nitro-5-(((tetrahydro-2H-pyran-4-yl)methyl)amino)pyridin-2-yl)sulfonyl) benzamide] | ≤ 1 | 
≤ 1 | Cc1nc(NC[C@H]2CC[C@](C)(O)CC2)c([N+](=O)[O-])cc1S(=O)(=O)NC(=O)c1ccc(N2CCC3(CC2)CC(N2CCOC[C@H]2c2ccccc2C(C)C)C3)cc1Oc1cnc2[nH]ccc2c1 (single isomer, unassigned) [Example A-131, 2-((1H-pyrrolo[2,3-b]pyridin-5-yl)oxy)-N-((6-((((1r,4r)-4-hydroxy-4-methylcyclohexyl)methyl)amino)-2-methyl-5-nitropyridin-3-yl)sulfonyl)-4-(2-((R or S)-3-(2-isopropylphenyl)morpholino)-7-azaspiro[3.5]nonan-7-yl) benzamide] | ≤ 1 | 
≤ 1 | CC(C)c1ccccc1[C@@H]1CCCN1C1CC2(CCN(c3ccc(C(=O)NS(=O)(=O)c4cc([N+](=O)[O-])c5c(n4)OC[C@H]([C@H]4CC[C@](C)(O)CC4)N5)c(Oc4cnc5[nH]ccc5c4)c3)CC2)C1 (single isomer, unassigned) [Example B-34, 2-((1H-pyrrolo[2,3-b]pyridin-5-yl)oxy)-N-(((S)-2-((1r,4S)-4-hydroxy-4-methylcyclohexyl)-8-nitro-2,3-dihydro-1H-pyrido[2,3-b] [1,4]oxazin-6-yl)sulfonyl)-4-(2-((R or S)-2-(2-isopropylphenyl)pyrrolidin-1-yl)-7-azaspiro[3.5]nonan-7-yl)benzamide] | ≤ 1 | 
≤ 1 | CC(C)c1ccccc1[C@H]1CCCN1C1CC2(CCN(c3ccc(C(=O)NS(=O)(=O)c4cnc(NCC5CCC(N=S(C)(C)=O)CC5)c([N+](=O)[O-])c4)c(Oc4cnc5[nH]ccc5c4)c3)CC2)C1 (stereo partly drawn) [Example A-10b, (R)-2-((1H-pyrrolo[2,3-b]pyridin-5-yl)oxy)-N-((6-(((4-((dimethyl (oxo)-λ^6-sulfanylidene)amino)cyclo-hexyl)methyl)amino)-5-nitropyridin-3-yl)sulfonyl)-4-(2-(2-(2-isopropyl-phenyl)pyrrolidin-1-yl)-7-azaspiro [3.5]nonan-7-yl)benzamide] | ≤ 1 | 
≤ 1 | CC(C)c1ccccc1[C@@H]1CCCN1C1CC2(CCN(c3ccc(C(=O)NS(=O)(=O)c4cnc(NCC5CCOCC5)c([N+](=O)[O-])c4)c(Oc4cnc5[nH]ccc5c4)c3)CC2)C1 [Example A-5a, (5)-2-((1H-pyrrolo[2,3-b]pyridin-5-yl)oxy)-4-(2-(2-(2-isopropyl-phenyl)pyrrolidin-1-yl)-7-azaspiro [3.5]nonan-7-yl)-N-((5-nitro-6-(((tetrahydro-2H-pyran-4-yl)methyl)amino)pyridin-3-yl)sulfonyl) benzamide] | ≤ 1 | 
≤ 1 | O=C(NS(=O)(=O)c1cc([N+](=O)[O-])c(NCC2CCOCC2)cn1)c1ccc(N2CCC3(CC2)CC(N2CCC[C@@H]2c2ccccc2C2CC2)C3)cc1Oc1cnc2[nH]ccc2c1 [Example B-1b, (R)-2-((1H-pyrrolo[2,3-b]pyridin-5-yl)oxy)-4-(2-(2-(2-cyclopropylphenyl)pyrrolidin-1-yl)-7-azaspiro[3.5]nonan-7-yl)-N-((4-nitro-5-(((tetrahydro-2H-pyran-4-yl)methyl)amino)pyridin-2-yl)sulfonyl)benzamide] | ≤ 1 | 
≤ 1 | O=C(NS(=O)(=O)c1cnc(NCC2CCC(N=S3(=O)CCOCC3)CC2)c([N+](=O)[O-])c1)c1ccc(N2CCC3(CC2)CC(N2CCC[C@@H]2c2ccccc2C2CC2)C3)cc1Oc1cnc2[nH]ccc2c1 (stereo partly drawn) [Example A-23b, (R)-2-((1H-pyrrolo[2,3-b]pyridin-5-yl)oxy)-4-(2-(2-(2-cyclopropyl-phenyl)pyrrolidin-1-yl)-7-azaspiro [3.5]nonan-7-yl)-N-((5-nitro-6-(((4-((4-oxido-1,4λ^6-oxathian-4-ylidene)amino)cyclohexyl)methyl)amino)pyridin-3-yl)sulfonyl) benzamide] | ≤ 1 | 
